Source: patent US10227331B2 (priority 2015, dated 2019)

What was measured:
IMP-1 = IMP-1 (Serratia marcescens, UniProt P52699); assay: biochemical; type: biochemical; conditions: CCF2-FA substrate, 2 hours at 25° C; read-out: IMP-1 IC50
Method in brief: (§1)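 Enzyme activity was measured by fluorescence using CCF2-FA, a cephalosporin-linked 7-hydroxycoumarin/fluorescein substrate, with inhibitor, metallo-β-lactamase and substrate incubated together for 2 hours at 25° C. IC50 came from a 4-parameter fit of inhibition versus log inhibitor concentration.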

NDM-1 = NDM-1 (Klebsiella pneumoniae, UniProt C7C422); assay: biochemical; type: biochemical; conditions: CCF2-FA substrate, 2 hours at 25° C; read-out: NDM-1 IC50
NDM-1, sequence (C7C422 whole entry, looked up, species assumed): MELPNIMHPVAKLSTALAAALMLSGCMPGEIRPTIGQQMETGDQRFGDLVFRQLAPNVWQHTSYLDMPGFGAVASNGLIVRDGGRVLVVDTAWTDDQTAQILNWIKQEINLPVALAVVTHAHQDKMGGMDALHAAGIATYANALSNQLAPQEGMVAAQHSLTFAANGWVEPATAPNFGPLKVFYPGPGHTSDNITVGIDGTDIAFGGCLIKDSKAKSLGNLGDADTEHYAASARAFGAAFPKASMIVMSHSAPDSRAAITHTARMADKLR
Method in brief: as §1

VIM-1 = VIM-1 (Pseudomonas aeruginosa (strain ATCC 15692 / DSM 22644 / CIP 104116 / JCM 14847 / LMG 12228 / 1C / PRS 101 / PAO1), UniProt A0A0F7KYQ8); assay: biochemical; conditions: CCF2-FA substrate, 2 hours at 25° C
Method in brief: as §1

[1] = test system: Escherichia coli expressing NDM-1 (CLB30005, CLB30016); type: cell-based; conditions: with imipenem 1 μg/ml, 95% inhibition of bacterial growth; for Escherichia coli MITC95: NDM-1 (CLB30016)
Method in brief: (§2)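 Restoration of imipenem susceptibility (1 μg/ml imipenem) was judged by absorbance after 22–24 h at 35° C. Test compound was added to bacteria suspended 1:100 in 1.1× CAMHB from overnight blood-agar cultures.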

[2] = test system: Klebsiella pneumoniae expressing VIM-1 (IHMA599644); type: cell-based; conditions: with imipenem 1 μg/ml, 95% inhibition of bacterial growth; for Klebsiella pneumoniae MITC95: VIM-1 (IHMA599644)
Method in brief: as §2

[3] = test system: Serratia marcescens expressing IMP-1 (CL5741); type: cell-based; conditions: with imipenem 1 μg/ml, 95% inhibition of bacterial growth; for Serratia marcescens MITC95: IMP-1 (CL5741)
Method in brief: as §2

[4] = test system: P. aeruginosa expressing IMP-1, efflux+ (MB9798); type: cell-based, Pseudomonas aeruginosa; conditions: for P. aeruginosa expressing IMP-1, efflux+ (MB9798) MITC95: imipenem at 2 μg/mL, in the presence of a class A, C, D serine β-lactamase inhibitor closely related to relebactam; for Efflux ratio: ratio MITC95 PA_9798/MITC95 PA_9799
Description: (§3) The strain background is Pseudomonas aeruginosa PAO1.

[5] = test system: P. aeruginosa expressing IMP-1, efflux− (MB9799); assay: Efflux: concentration of MBL inhibitor which restores susceptibility to imipenem; type: cell-based, Pseudomonas aeruginosa; conditions: imipenem at 2 μg/mL, in the presence of a class A, C, D serine β-lactamase inhibitor closely related to relebactam
Description: as §3

IMP-1, sequence (P52699 whole entry, looked up, species assumed): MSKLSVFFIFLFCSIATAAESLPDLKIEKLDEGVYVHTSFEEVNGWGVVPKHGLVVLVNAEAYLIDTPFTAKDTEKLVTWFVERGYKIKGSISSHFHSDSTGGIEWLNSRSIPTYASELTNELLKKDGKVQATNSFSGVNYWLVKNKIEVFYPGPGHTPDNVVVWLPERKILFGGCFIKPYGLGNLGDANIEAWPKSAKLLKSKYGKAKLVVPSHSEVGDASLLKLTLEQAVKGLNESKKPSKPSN

Row | SMILES | IC50 (IMP-1) [nM] | IC50 (NDM-1) [nM] | IC50 (VIM-1) [nM] | Escherichia coli expressing NDM-1 (CLB30016) MITC95 [1] [µM] | Klebsiella pneumoniae expressing VIM-1 (IHMA599644) MITC95 [2] [µM] | Serratia marcescens expressing IMP-1 (CL5741) MITC95 [3] [µM] | P. aeruginosa expressing IMP-1, efflux+ (MB9798) MITC95 [4] [µM] | Efflux ratio [4] | P. aeruginosa expressing IMP-1, efflux− (MB9799) MITC95 [5] [µM] | Escherichia coli MITC95 [1] [µM] | Klebsiella pneumoniae MITC95 [2] [µM] | Serratia marcescens MITC95 [3] [µM]
1 | CCOC(=O)N1CC(S(=O)(=O)c2ccc(-c3cccc4[nH]c(N)nc34)c(-c3nn[nH]n3)c2S(N)(=O)=O)C1 [Example 57, ethyl 3-(4-(2-amino-1H-benzo[d]imidazol-4-yl)-2-sulfamoyl-3-(2H-tetrazol-5-yl)phenylsulfonyl)azetidine-1-carboxylate] | 1.98 | 0.264 | 0.446 | 6.25 | 12.5 | 6.25 | 200 | 64.00 | 3.125 | – | – | –
2 | Nc1nc2cccc(-c3ccc(S(=O)(=O)[C@H]4CCNC4)c(S(N)(=O)=O)c3-c3nn[nH]n3)c2[nH]1 [Example 182, 3-(2-amino-3H-benzo[d]imidazol-4-yl)-6-((S)-pyrrolidin-3-ylsulfonyl)-2-(2H-tetrazol-5-yl)benzenesulfonamide] | 0.979 | 0.154 | 0.21 | 0.25 | 0.8906 | 0.6406 | 0.6406 | 1.00 | 0.6406 | – | – | –
3 | Nc1nc2c(-c3ccc(S(=O)(=O)[C@@H]4CCNC4)c(S(N)(=O)=O)c3-c3nn[nH]n3)cccc2s1 [Example 183, 3-(2-aminobenzo[d]thiazol-4-yl)-6((R)-pyrrolidin-3-ylsulfonyl)-2-(2H-tetrazol-5-yl)benzenesulfonamide] | 0.157 | 0.122 | 0.294 | 0.7813 | 1.563 | 1.563 | 0.7813 | 1.00 | 0.7813 | – | – | –
4 | NC(=O)c1ccc(-c2ccc(S(=O)(=O)C3CNC3)c(S(N)(=O)=O)c2-c2nn[nH]n2)c2nc(N)sc12 [Example 39, 2-amino-4-(4-(azetidin-3-ylsulfonyl)-3-sulfamoyl-2-(2H-tetrazol-5-yl)phenyl)benzo[d]thiazole-7-carboxamide] | 0.276 | 0.0303 | 0.129 | 1.563 | 3.125 | 3.125 | 0.7813 | 0.50 | 1.563 | – | – | –
5 | COC(=O)c1nc2c(-c3ccc(S(=O)(=O)C4CNC4)c(S(N)(=O)=O)c3-c3nn[nH]n3)cccc2[nH]1 [Example 252, Methyl 4-(4-(azetidin-3-ylsulfonyl)-3-sulfamoyl-2-(2H-tetrazol-5-yl)phenyl)-1H-benzo[d]imidazole-2-carboxylate] | 0.423 | 0.0464 | 0.209 | – | – | – | 3.125 | 1.00 | 3.125 | 1.563 | 6.25 | 3.125
6 | NS(=O)(=O)c1c(S(=O)(=O)C2CNC2)ccc(-c2cccc3scnc23)c1-c1nn[nH]n1 [Example 201, 6-(Azetidin-3-ylsulfonyl)-3-(benzo[d]thiazol-4-yl)-2-(2H-tetrazol-5-yl)benzenesulfonamide] | 0.153 | 0.0956 | 0.176 | 0.7813 | 3.125 | 1.563 | 1.563 | 2.00 | 0.7813 | – | – | –
7 | NC[C@@H](N)CS(=O)(=O)c1ccc(-c2cccc3[nH]c(N)nc23)c(-c2nn[nH]n2)c1S(N)(=O)=O [Example 360, (R)-3-(2-amino-1H-benzo[d]imidazol-4-yl)-6-((2,3-diaminopropyl)sulfonyl)-2-(2H-tetrazol-5-yl) benzenesulfonamide] | 0.544 | 0.0654 | 0.287 | – | – | – | 0.8906 | 0.70 | 1.281 | 0.25 | 1.781 | 1.391
